Laboratory results as given in patent US9339486B2, “Heterocyclic modulators of cannabinoid receptors” (THE CLEVELAND CLINIC FOUNDATION, priority 2008, dated 2016).

Key:
rCB2 receptors = rCB2 receptors (Rattus norvegicus (Rat), UniProt Q9QZN9); assay: cAMP activation assay rCB2; format: cell-based
Experimental: The compound of Example 3 was tested for agonist activity at the rat CB1 (rCB1) and rCB2 receptors, at eight concentrations, in duplicate: 10, 3, 1, 0.3, 0.1, 0.03, 0.01 and 0.001 μM. Recombinant cells grown to mid-log phase in culture media without antibiotics were detached with PBS containing 5 mM EDTA, centrifuged and resuspended in assay buffer at a concentration of 16.6×10^5 cells/ml. The test was performed in 96 well plates. For testing, 12 μl of cells ([…]) were mixed with 12 μl of agonist at increasing concentrations. […] The plates were then incubated for 30 min at room temperature. After addition of the lysis buffer, cAMP concentrations were estimated, according to the manufacturer specification, with the HTRF kit from Cis-Bio International (Catalogue number 62AM2PEB).

[1] = tested on: paclitaxel-induced neuropathy; assay: Prevention of neuropathy induced by paclitaxel; format: in vivo, rat; settings: paclitaxel model
Experimental: A mixture of saline and CREMOPHOR® ELP 10% was used as vehicle for paclitaxel. It was injected at a concentration of 1.0 mg/kg intraperitoneally to the chemotherapy-treated group of rats on 4 consecutive days for a final cumulative dose of 4 mg/kg to 18 rats.
Paw withdrawal thresholds were determined daily in both hind paws of each animal using calibrated von Frey monofilaments according to an up-down procedure. A series of von Frey filaments with exponentially incremental degrees of stiffness (0.4, 0.7, 1.2, 2.0, 3.6, 5.5, 8.5, and 15.1 g) was used to measure the 50% threshold for both hindpaw withdrawal in awake, unrestrained rats. Chaplan, S. R., Quantitative assessment of tactile allodynia in the rat paw, Journal of Neuroscience Methods, 1994, 53:55-63. Brisk paw withdrawal from the pressure of a filament gently bent against the plantar surface of the paw was defined as a positive response, and absence of withdrawal within 6 sec was considered a negative response. The series of filaments touched the hindpaw in sequential ascending or descending order of stiffness until the threshold of response was crossed (allowing about 10 sec between each increment). Each time the threshold was crossed, the direction of stimulus presentation was reversed and the procedure resumed. Four responses were collected after the first threshold detection, and the 50% withdrawal thresholds was interpolated. In cases in which the response thresholds fall outside the range of detection, 15.1 and 0.25 g were assigned for continuous negative or positive responses, respectively, to the limits of stimulation. FIG. 17 and FIG. 18 show results from these experiments and that peripheral neuropathy started to develop within a few days. FIG. 18 reflects that a plateau was reached by the 10th day.
Group 1 of rats received paclitaxel for four days, as described immediately above in subpart (A) titled “Paclitaxel-induced Neuropathy.” In group 2, a dose of 15 mg/kg of the compound of Example 3, injected intraperitoneally was administered 30 minutes prior to the administration of paclitaxel. In group 3, vehicle of the compound of Example 3 was administered 30 min prior to the administration of paclitaxel. Paw withdrawal thresholds were determined daily in both hind paws of each animal using calibrated von Frey monofilaments according to an up-down procedure as described immediately above in subpart (A) titled “Paclitaxel-induced Neuropathy.” The results are shown in FIG. 17.
FIGS. 19A and 19B show results from an experiment in which three groups of rats were administered 0.25 mL of the compound of Example 3 or the vehicle, a mixture of NMP, propylene glycol, chromophore ELP (25%, 25%, 10%) in sterile water 30 min prior to the administration of paclitaxel. Two of the three experimental groups continued to receive either the vehicle or the compound of Example 3 daily for 11 more days.

naïve rats = assay: Open field chamber testing; format: in vivo, rat; settings: i.p.: Example 3 15 mg/kg, WIN 55,212-2 7 mg/kg, haloperidol 1 mg/kg
Experimental: The automated open-field chamber (Med Associates ENV-515 Test Environment, St. Albans, Vt.) 43.2×43.2×30.5 cm (L×W×H) equipped with three pairs of 16 infrared arrays that continually monitored the animal's movement was used to determine potential CNS effects of the compound of Example 3, WIN55212-2, and haloperidol in naïve rats. Rats were individually tested 15 min after i.p. drug administration. The infrared beams were set 2.5 cm apart horizontally and at a height of 3 cm above the floor, with the rearing array set at 12 cm from the floor. The area in the box was divided into 4 equal quadrants (zones), with data collected within each quadrant and across quadrants (zone entries). An ambulatory movement was defined as a motion of at least 5 cm and was coded by quadrant. Vertical movements were counted when the rat moved vertically a minimum of 12 cm from the floor. Zone entries were defined as an entry into a zone (from another zone). Entry into a zone was counted when the rat was far enough into the zone to break 2 sets of photoelectric beams for the new zone beams during an ambulatory movement.

CCCCCCC(C)(C)c1ccc([C@@H]2C[C@H](O)CC[C@H]2CCCO)c(O)c1 [CP55,940, reference compound] showed an EC50 (rCB2 receptors) of 1.13 ± 0.13 nM.

For COc1ccc2[nH]cc(CCNC(C)=O)c2c1 [Melatonin, reference compound], the protection against neuropathy [1] was “did not provide any protection”.

For Cc1c(C(=O)c2cccc3ccccc23)c2cccc3c2n1[C@H](CN1CCOCC1)CO3 [WIN 55,212-2, reference compound], the “exploratory behavior in the open field (distance traveled, ambulatory time, rearing, zone entries)” value (naïve rats) was “decreased exploratory behavior”.
